Patent US20170291882A1, “Solid Forms of Mirabegron” (Apotex Inc., priority 2014, published 2017)
In brackets after ≈: the same amount, converted by molar mass. Like-named read-outs stand apart in the source and are kept apart here.

What was measured:
[1] = Hygroscopicity testing (desiccator with saturated ammonium sulphate solution, 25° C., 24 hours); type: physicochemical; details: 1 g, unstoppered vessel over saturated ammonium sulphate solution
Protocol: The hygroscopicity testing was conducted by placing 1 g of form APO-I Mirabegron in an unstoppered weighing vessel in a desiccator containing a saturated ammonium sulphate solution. The desiccator was placed in an oven at 25° C. for 24 hours. After this time, the percentage increase in mass was 0.89%.

[2] = Solubility testing of forms of Mirabegron (suspension stirred at room temperature, supernatant dried to constant weight); type: physicochemical
Protocol: Solubility testing was conducted by preparing a suspension of the subject form of Mirabegron in the indicated solvent and stirring the suspension for the indicated time period at room temperature. After this time, excess solid was removed by filtration and the volume of the supernatant was recorded. The supernatant was concentrated in vacuo and dried to constant weight to afford a solid. The solubility is shown as the weight of solid/volume of supernatant in mg/mL. The α-form and β-form of Mirabegron refer to the forms as characterized in CA 2 464 068 C.
Phosphate buffer was prepared by dissolving potassium dihydrogen phosphate (340 mg) and disodium hydrogen phosphate (353 mg) in deionized water (100 mL).

[3] = cited from earlier work; for hygroscopicity (in words): as disclosed in CA 2 464 068 C

Nc1nc(CC(=O)Nc2ccc(CCNC[C@H](O)c3ccccc3)cc2)cs1 [Form APO-I, Mirabegron]
percentage increase in mass [1]: 0.89%
solubility at 2 h ([2]; 0.1M HCl, simulated gastric fluid, thermodynamic from solid, 2 hours): 15 mg/mL (≈ 37.8 mM)
Solubility ([2]; Distilled water, 2 hours, listed as APO-I): 0.5 mg/mL (≈ 1.26 mM)
Solubility ([2]; Ethanol (denatured), 0.5 hours, listed as APO-I): 62.8 mg/mL (≈ 158 mM)
Solubility ([2]; Phosphate buffer (pH 6.8), 2 hours, listed as APO-I): 6.2 mg/mL (≈ 15.6 mM)

Nc1nc(CC(=O)Nc2ccc(CCNC[C@H](O)c3ccccc3)cc2)cs1 [Form α, (R)-2-(2-aminothiazol-4-yl)-4′-[2-[(2-hydroxy-2-phenylethyl)amino]ethyl]acetanilide]
Solubility ([2]; 0.1M HCl, 2 hours): 13.0 mg/mL (≈ 32.8 mM)
Solubility ([2]; Distilled water, 2 hours, listed as α): 0.2 mg/mL (≈ 0.504 mM)
Solubility ([2]; Ethanol (denatured), 0.5 hours, listed as α): 21.3 mg/mL (≈ 53.7 mM)
Solubility ([2]; Phosphate buffer (pH 6.8), 2 hours, listed as α): 2.5 mg/mL (≈ 6.3 mM)
hygroscopicity (in words) ([3]; listed as α-form crystal): no hygroscopicity

Nc1nc(CC(=O)Nc2ccc(CCNC[C@H](O)c3ccccc3)cc2)cs1 [Form β, (R)-2-(2-aminothiazol-4-yl)-4′-[2-[(2-hydroxy-2-phenylethyl)amino]ethyl]acetanilide]
Solubility ([2]; Ethanol (denatured), 0.5 hours, listed as β): 27.2 mg/mL (≈ 68.6 mM)
hygroscopicity (in words) ([3]; listed as β-form crystal): relatively low hygroscopicity
moisture held (hygroscopic) ([3]; reported in CA 2 464 068 C): up to 3%
